Assay results published in the supplement of paper PMC10307832.

Key:
Assay in all cases: relative viability (nuclei count vs DMSO), 5 days (fraction); higher = more cells survive
[1] = compound: CN(c1ncccc1CNc1nc(Nc2ccc3c(c2)CC(=O)N3)ncc1C(F)(F)F)S(C)(=O)=O + CC(C)C[C@H](NC(=O)[C@H](Cc1ccccc1)NC(=O)c1cnccn1)B(O)O [Bortezomib] (partner 0.002 µM)
Method in brief: (§1)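 Relative viability equals treated-well nuclei counts divided by vehicle-well nuclei counts. Counts came from 4× images of lung cancer cell lines grown in 1536-well plates for 5 days after pin-tool dosing on the day after seeding. Dosing used one drug alone or a fixed anchor-drug dose plus five library-drug doses (not always all listed) in √10 steps, and values are medians of duplicate plates.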

[2] = compound: CN(c1ncccc1CNc1nc(Nc2ccc3c(c2)CC(=O)N3)ncc1C(F)(F)F)S(C)(=O)=O + CC(=O)Nc1cccc(-n2c(=O)n(C3CC3)c(=O)c3c(Nc4ccc(I)cc4F)n(C)c(=O)c(C)c32)c1 [Trametinib] (partner 0.02 µM)
Method in brief: as §1

[3] = compound: CN(c1ncccc1CNc1nc(Nc2ccc3c(c2)CC(=O)N3)ncc1C(F)(F)F)S(C)(=O)=O + O=C(c1cc(Cc2n[nH]c(=O)c3ccccc23)ccc1F)N1CCN(C(=O)C2CC2)CC1 [Olaparib] (partner 8 µM)
Method in brief: as §1

[4] = compound: CN(c1ncccc1CNc1nc(Nc2ccc3c(c2)CC(=O)N3)ncc1C(F)(F)F)S(C)(=O)=O + CS(=O)(=O)N1CCN(Cc2cc3nc(-c4cccc5[nH]ncc45)nc(N4CCOCC4)c3s2)CC1 [Pictilisib] (partner 1 µM)
Method in brief: as §1

Row | Cell Line | relative viability ([1]; first compound 0.01 µM) | relative viability ([1]; first compound 0.03162 µM) | relative viability ([1]; first compound 0.1 µM) | relative viability ([1]; first compound 0.3162 µM) | relative viability ([1]; first compound 1 µM) | relative viability ([2]; first compound 0.01 µM) | relative viability ([2]; first compound 0.03162 µM) | relative viability ([2]; first compound 0.1 µM) | relative viability ([2]; first compound 0.3162 µM) | relative viability ([2]; first compound 1 µM) | relative viability ([3]; first compound 0.01 µM) | relative viability ([3]; first compound 0.03162 µM) | relative viability ([3]; first compound 0.1 µM) | relative viability ([3]; first compound 0.3162 µM) | relative viability ([3]; first compound 1 µM) | relative viability ([4]; first compound 0.01 µM) | relative viability ([4]; first compound 0.03162 µM) | relative viability ([4]; first compound 0.1 µM) | relative viability ([4]; first compound 0.3162 µM) | relative viability ([4]; first compound 1 µM)
1 | NCI-H1755 | 0.985 | 0.967 | 0.983 | 0.849 | 0.826 | 0.766 | 0.833 | 0.786 | 0.758 | 0.733 | 0.909 | 0.904 | 0.83 | 0.791 | 0.839 | 0.436 | 0.417 | 0.426 | 0.477 | 0.451
2 | NCI-H1792 | 1.02 | 0.999 | 0.83 | 0.924 | 0.941 | 0.407 | 0.632 | 0.433 | 0.594 | 0.42 | 0.414 | 0.386 | 0.691 | 0.495 | 0.386 | 0.263 | 0.281 | 0.323 | 0.306 | 0.332
3 | NCI-H1915 | 0.988 | 1.05 | 1.01 | 0.888 | 0.963 | 0.288 | 0.293 | 0.293 | 0.315 | 0.29 | 0.272 | 0.241 | 0.262 | 0.264 | 0.285 | 1.01 | 0.826 | 0.905 | 1.01 | 0.939
4 | NCI-H1975 | 0.423 | 0.449 | 0.44 | 0.395 | 0.276 | 0.358 | 0.348 | 0.461 | 0.342 | 0.315 | 0.799 | 0.873 | 0.821 | 0.832 | 0.7 | 0.278 | 0.282 | 0.337 | 0.268 | 0.281
5 | NCI-H1993 | 0.993 | 1.22 | 1.11 | 1.04 | 0.907 | 0.481 | 0.547 | 0.669 | 0.409 | 0.585 | 1.13 | 0.977 | 1 | 1.1 | 0.92 | 0.832 | 0.754 | 0.856 | 0.828 | 0.775
6 | NCI-H2009 | 1.32 | 1.04 | 1.02 | 0.991 | 0.955 | 0.25 | 0.263 | 0.246 | 0.29 | 0.286 | 0.651 | 0.707 | 0.684 | 0.681 | 0.679 | 0.793 | 0.91 | 0.745 | 0.95 | 0.958
7 | NCI-H2023 | 0.985 | 1.02 | 0.963 | 0.945 | 0.938 | 0.52 | 0.539 | 0.6 | 0.426 | 0.52 | 0.458 | 0.476 | 0.467 | 0.359 | 0.407 | 0.265 | 0.329 | 0.199 | 0.225 | 0.2
